Measurements reported in ChEMBL document CHEMBL1275247, “Pharmacokinetics and safety of CXA-101, a new antipseudomonal cephalosporin, in healthy adult male and female subjects receiving single- and multiple-dose intravenous infusions” (Antimicrob Agents Chemother, 2010).

Columns and labels:
[1] = Half-life in plasma of healthy human 1500 mg administered as single ascending dose, iv for 1 hr infusion; assay type: ADME, organism-based
[2] = Volume of distribution at steady state in healthy human at 500 mg, iv administered as 1 hr infusion every 8 hrs for 10 days measured on day 1; assay type: ADME, organism-based; details: in vivo
[3] = Volume of distribution at steady state in healthy human at 500 mg, iv administered as single dose as 1 hr iv infusion; assay type: ADME, organism-based; details: in vivo
Homo sapiens [4] = assay: Toxicity in healthy human assessed as occurrence of flushing at 1000 mg, iv administered as 1 hr infusion every 8 hrs for 10 days; assay type: organism-based; details: in vivo
[5] = Clearance in healthy human at 250 mg, iv administered as single dose as 1 hr iv infusion; assay type: ADME, organism-based; details: in vivo
[6] = Mean residence time in healthy human at 500 mg, iv administered as 1 hr infusion every 8 hrs for 10 days measured on day 10; assay type: ADME, organism-based; details: in vivo
[7] = Drug recovery in urine of healthy human at 1000 mg, iv administered as 1 hr infusion every 8 hrs for 10 days measured on day 10; assay type: ADME, organism-based; details: read-out: Activity
[8] = Renal clearance in healthy human at 500 mg, iv administered as 1 hr infusion every 8 hrs for 10 days measured on day 10; assay type: ADME, organism-based, Kidney; details: in vivo, read-out: CL_renal
[9] = Cmax in healthy human at 500 mg, iv administered as 1 hr infusion every 8 hrs for 10 days measured on day 10; assay type: ADME, organism-based; design: dose 500 mg, route intravenous; details: in vivo
[10] = Volume of distribution at steady state in healthy human at 1500 mg, iv administered as single dose as 1 hr iv infusion; assay type: ADME, organism-based; details: in vivo
[11] = Tmax in healthy human at 1500 mg, iv administered as 1 hr infusion every 12 hrs for 10 days measured on day 10; assay type: ADME, organism-based; details: in vivo
[12] = Cmax in healthy human at 1000 mg, iv administered as 1 hr infusion every 8 hrs for 10 days measured on day 10; assay type: ADME, organism-based; design: dose 1000 mg, route intravenous; details: in vivo
Homo sapiens [13] = assay: Toxicity in healthy human assessed as occurrence of vulvo-vaginal pruritus at 1500 mg, iv administered as single dose as 1 hr iv infusion; assay type: organism-based; details: in vivo
[14] = Half-life in plasma of healthy human 1500 mg, iv administered as 1 hr infusion every 12 hrs for 10 days measured on day 1; assay type: ADME, organism-based
[15] = AUC (0 to infinity) in healthy human at 2000 mg, iv administered as single dose as 1 hr iv infusion; assay type: ADME, organism-based; design: dose 2000 mg, route intravenous, time infinity; details: plasma
[16] = Mean residence time in healthy human at 1000 mg, iv administered as 1 hr infusion every 8 hrs for 10 days measured on day 10; assay type: ADME, organism-based; details: in vivo
[17] = Half-life in plasma of healthy human 500 mg, iv administered as 1 hr infusion every 8 hrs for 10 days measured on day 1; assay type: ADME, organism-based
[18] = Renal clearance in healthy human at 500 mg, iv administered as 1 hr infusion every 8 hrs for 10 days measured on day 1; assay type: ADME, organism-based, Kidney; details: in vivo, read-out: CL_renal
[19] = AUC (0 to infinity) in healthy human at 1500 mg, iv administered as single dose as 1 hr iv infusion; assay type: ADME, organism-based; design: dose 1500 mg, time infinity, route intravenous; details: plasma
[20] = Clearance in healthy human at 1000 mg, iv administered as 1 hr infusion every 8 hrs for 10 days measured on day 10; assay type: ADME, organism-based; details: in vivo
[21] = Half-life in plasma of healthy human 2000 mg administered as single ascending dose, iv for 1 hr infusion; assay type: ADME, organism-based
[22] = Tmax in healthy human at 1500 mg, iv administered as 1 hr infusion every 12 hrs for 10 days measured on day 1; assay type: ADME, organism-based; details: in vivo
[23] = Clearance in healthy human at 500 mg, iv administered as 1 hr infusion every 8 hrs for 10 days measured on day 1; assay type: ADME, organism-based; details: in vivo
[24] = Tmax in healthy human at 500 mg, iv administered as single dose as 1 hr iv infusion; assay type: ADME, organism-based; details: in vivo
[25] = Volume of distribution at steady state in healthy human at 1500 mg, iv administered as 1 hr infusion every 12 hrs for 10 days measured on day 1; assay type: ADME, organism-based; details: in vivo
Homo sapiens [26] = assay: Toxicity in healthy human assessed as occurrence of diarrhea at 500 mg, iv administered as 1 hr infusion every 8 hrs for 10 days; assay type: organism-based; details: in vivo
[27] = Clearance in healthy human at 1500 mg, iv administered as 1 hr infusion every 12 hrs for 10 days measured on day 10; assay type: ADME, organism-based; details: in vivo
Homo sapiens [28] = assay: Toxicity in healthy human assessed as occurrence of somnolence at 1000 mg, iv administered as single dose as 1 hr iv infusion; assay type: organism-based; details: in vivo
[29] = AUC (0 to infinity) in healthy human at 1000 mg, iv administered as 1 hr infusion every 8 hrs for 10 days measured on day 1; assay type: ADME, organism-based; design: dose 1000 mg, time infinity, route intravenous; details: plasma
[30] = Tmax in healthy human at 1500 mg, iv administered as single dose as 1 hr iv infusion; assay type: ADME, organism-based; details: in vivo
[31] = Drug recovery in urine of healthy human at 1000 mg, iv administered as 1 hr infusion every 8 hrs for 10 days measured on day 1; assay type: ADME, organism-based; details: read-out: Activity
[32] = Tmax in healthy human at 1000 mg, iv administered as 1 hr infusion every 8 hrs for 10 days measured on day 1; assay type: ADME, organism-based; details: in vivo
Homo sapiens [33] = assay: Toxicity in healthy human assessed as occurrence of nausea at 1000 mg, iv administered as single dose as 1 hr iv infusion; assay type: organism-based; details: in vivo
[34] = Volume of distribution at steady state in healthy human at 1000 mg, iv administered as 1 hr infusion every 8 hrs for 10 days measured on day 10; assay type: ADME, organism-based; details: in vivo
[35] = Half-life in plasma of healthy human 1000 mg, iv administered as 1 hr infusion every 8 hrs for 10 days measured on day 10; assay type: ADME, organism-based
[36] = Renal clearance in healthy human at 1500 mg, iv administered as single dose as 1 hr iv infusion; assay type: ADME, organism-based, Kidney; details: in vivo, read-out: CL_renal
[37] = Renal clearance in healthy human at 2000 mg, iv administered as single dose as 1 hr iv infusion; assay type: ADME, organism-based, Kidney; details: in vivo, read-out: CL_renal
[38] = Cmax in healthy human at 500 mg, iv administered as single dose as 1 hr iv infusion; assay type: ADME, organism-based; design: dose 500 mg, route intravenous; details: in vivo
[39] = AUC (0 to infinity) in healthy human at 500 mg, iv administered as single dose as 1 hr iv infusion; assay type: ADME, organism-based; design: dose 500 mg, time infinity, route intravenous; details: plasma
[40] = Cmax in healthy human at 1500 mg, iv administered as single dose as 1 hr iv infusion; assay type: ADME, organism-based; design: dose 1500 mg, route intravenous; details: in vivo
[41] = Renal clearance in healthy human at 1000 mg, iv administered as 1 hr infusion every 8 hrs for 10 days measured on day 10; assay type: ADME, organism-based, Kidney; details: in vivo, read-out: CL_renal
[42] = Tmax in healthy human at 250 mg, iv administered as single dose as 1 hr iv infusion; assay type: ADME, organism-based; details: in vivo
[43] = Volume of distribution at steady state in healthy human at 500 mg, iv administered as 1 hr infusion every 8 hrs for 10 days measured on day 10; assay type: ADME, organism-based; details: in vivo
Homo sapiens [44] = assay: Toxicity in healthy human assessed as occurrence of hypoaesthesia at 500 mg, iv administered as 1 hr infusion every 8 hrs for 10 days; assay type: organism-based; details: in vivo
[45] = Clearance in healthy human at 1500 mg, iv administered as 1 hr infusion every 12 hrs for 10 days measured on day 1; assay type: ADME, organism-based; details: in vivo

- half-life [1]: 2.62 h
- Vd [2]: 13.8 L
- Vd [3]: 14.8 L
- clearance [5]: 104 mL/min
- MRT [6]: 2.32 h
- dose excreted at 10 day [7]: 94.1%
- CL renal [8]: 87.6 mL/min
- Cmax [9]: 33300 ng/mL
- Vd [10]: 17.6 L
- Tmax [11]: 1 h
- Cmax [12]: 58000 ng/mL
- half-life [14]: 2.72 h
- AUC(0-inf) [15]: 344 µg·h/mL
- MRT [16]: 2.45 h
- half-life [17]: 2.21 h
- CL renal [18]: 78.4 mL/min
- AUC(0-inf) [19]: 243 µg·h/mL
- clearance [20]: 116 mL/min
- half-life [21]: 2.45 h
- Tmax [22]: 1.03 h
- clearance [23]: 94.6 mL/min
- Tmax [24]: 1.03 h
- Vd [25]: 18.1 L
- clearance [27]: 121 mL/min
- AUC(0-inf) [29]: 149 µg·h/mL
- Tmax [30]: 1.03 h
- dose excreted at 1 day [31]: 99.4%
- Tmax [32]: 1.03 h
- Vd [34]: 17.1 L
- half-life [35]: 2.69 h
- CL renal at 1 h [36]: 96.2 mL/min
- CL renal at 1 h [37]: 92.9 mL/min
- Cmax [38]: 32200 ng/mL
- AUC(0-inf) [39]: 84.1 µg·h/mL
- Cmax [40]: 87400 ng/mL
- CL renal [41]: 111 mL/min
- Tmax [42]: 1.03 h
- Vd [43]: 14 L
- clearance [45]: 114 mL/min
Compound: Cn1c(N)c(NC(=O)NCCN)c[n+]1CC1=C(C(=O)O)N2C(=O)[C@@H](NC(=O)/C(=N\OC(C)(C)C(=O)[O-])c3nsc(N)n3)[C@H]2SC1 [CEFTOLOZANE]
- Activity (Homo sapiens [4]): Non-toxic
- Activity (Homo sapiens [13]): Non-toxic
- Activity (Homo sapiens [26]): Non-toxic
- Activity (Homo sapiens [28]): Non-toxic
- Activity (Homo sapiens [33]): Non-toxic
- Activity (Homo sapiens [44]): Non-toxic
